Laboratory results as given in patent publication US8420592B2, “Methods of treatment using single doses of oritavancin” (The Medicines Company, priority 2008, dated 2013).

Assays:
MRSA = assay: Phase 2 cSSSI study: cure rate by baseline pathogen; assay type: in vivo, Staphylococcus aureus; conditions: MRSA at baseline, TOC
Procedure: (§1) The primary efficacy endpoint was the clinical response in the CE population at TOC, which occurred 20 to 28 days after study enrollment on Day 1. Clinical response was determined by the investigator as part of the end-of-therapy, TOC, and late follow-up procedures by assessing signs and symptoms including fever, pain, tenderness, erythema, induration, edema, purulent drainage, eschar, and devitalized tissue. A clinical response of cure, improvement, failure, or indeterminate was assigned at end-of-therapy and TOC by the investigator based on clinical signs and symptoms. At late follow-up, the investigator could assign the clinical response of relapse in addition to cure, improvement, or indeterminate. Only patients with a clinical response of cure or improvement at TOC were assessed for clinical response at late follow-up.
(§2) Cure was defined as resolution of purulent drainage, pain, edema, fever, erythema, tenderness, and induration. Serous drainage or aspirate and/or granulation tissue could be present. Improvement was defined as resolution of purulent drainage and, in the case of cellulitis, cessation of fever and pain. Residual erythema, edema, pain (in the case of wound or abscess), tenderness, and/or induration could be present as could serous drainage, granulation tissue, eschar, and/or devitalized tissue. Failure included any of the following: presence of purulent drainage (or aspirate) and/or fever; the unanticipated need for abscess drainage or removal of sutures (for treatment of infection)>48 hours after initiation of study therapy; or treatment with nonstudy systemic antibiotic having activity against gram-positive pathogen(s) for the primary infection site or use of topical antibiotics at the site of primary infection 24 hours or more after initiation of study medication therapy.
(§3) Blood and infection site cultures were obtained within three days of enrollment (often done at the time of enrollment). End-of-therapy, TOC, and late follow-up (or at early relapse) cultures were obtained from the infection site if clinically indicated. […] Specimens were cultured and pathogens were identified at each investigative site's certified laboratory. All isolated gram-positive pathogen(s) that were obtained from the infection site at baseline/randomization and up to and including the TOC time point were subcultured and sent to a central laboratory (Covance Clinical Laboratories, Indianapolis, Ind.) for confirmatory identification and susceptibility testing. In cases of discrepancy between the local and the central laboratory, central laboratory results were used.

MSSA = assay: as above; assay type: in vivo, Staphylococcus aureus; conditions: MSSA at baseline
Procedure: as §1, §2, §3

In the case of `CN[C@H](CC(C)C)C(=O)N[C@H]1C(=O)N[C@@H](CC(N)=O)C(=O)N[C@H]2C(=O)N[C@H]3C(=O)N[C@H](C(=O)N[C@H](C(=O)O)c4cc(O)cc(O)c4-c4cc3ccc4O)[C@H](O[C@H]3C[C@](C)(N)[C@@H](O)[C@H](C)O3)c3ccc(c(Cl)c3)Oc3cc2cc(c3O[C@@H]2O[C@H](CO)[C@@H](O)[C@H](O)[C@H]2O[C@H]2C[C@](C)(NCc3ccc(-c4ccc(Cl)cc4)cc3)[C@@H](O)[C@H](C)O2)Oc2ccc(cc2Cl)[C@H]1O` [Oritavancin, N-(4-(4-chlorophenyl)benzyl)A82846B], the “% of patients cured (cure and improvement)” value (“% of patients cured” below) (MRSA; 200 mg daily dose) is reported as 78.3%, the “% of patients cured” value (MRSA; 800 mg infrequent dose) is reported as 87.0% and the “% of patients cured” value (MRSA; 1200 mg single dose) is reported as 73.0%. The “% of patients cured” value (MSSA; 200 mg daily dose) was 56.5%, the “% of patients cured” value (MSSA; 800 mg infrequent dose) was 68.8% and the “% of patients cured” value (MSSA; 1200 mg single dose) was 90.9%.
